Structures can show the parent of a compound that is named as a salt. Where two headings read alike, the source gives them in different places.

Data set [1] relates to EpiOcular™ Tissue Model (OCL-200). Briefly: MatTek EpiOcular MTT Viability Assay (ocular irritancy). In kind it is cell-based, human. As to the method: The MatTek EpiOcular™ MTT Viability Assay (MatTek Corp.) was utilized to assess ocular irritancy and toxicology of octenidine distearate and octenidine dihydrochloride. The assay was performed using the MatTek EpiOcular™ Tissue Model (OCL-200) as well as the Methyl thiazole tetrazolium (MT) Kit (MT-100). The EpiOcular™ Tissue Model closely parallels human ocular tissue, thus providing a useful in vitro method to assess ocular irritancy and toxicology.
MTT Reduction: 704 μl of mineral oil were heated at 70° C. for 10 minutes.
0.3% Triton® X-100 (MatTek) (clear liquid) was used as a positive control. Tissue culture water (TCH20) (Sigma) (clear liquid) was used as a negative control. Mineral oil (Sigma) (clear liquid) was used as a vehicle control.
Before use, tissues were incubated (37° C.±1° C., 5%±1% CO2) with assay medium (MatTek) for a one-hour equilibration. Equilibration medium was replaced with fresh medium before dosing.
The test articles were diluted as described in the sample preparation above. 100 μl of the test article dilution were mixed with 1 ml of MTT solution (1 mg/ml MTT diluted in Dulbecco's Modified Eagle's Medium (DMEM). A negative control (100 μl of tissue culture water) and a vehicle control (100 μl of mineral oil) were tested concurrently. The solutions were incubated at room temperature in the dark for 60 minutes. After incubation, the solutions were visually inspected for purple coloration, which is a positive indication that the test article reduced MTT. Since tissue viability is based on MTT reduction, direct reduction by a test article can exaggerate viability, making a test article seem less irritating that it really is. […]
At the end of the selected exposure periods, each EpiOcular™ tissue was rinsed with phosphate buffered saline (PBS), soaked for 10 minutes in assay medial and transferred to a 24-well plate containing 300 μl of MTT solution (1 mg/ml MTT in DMEM). […] An aliquot of the extracted MTT formazan was measured at 540 nm using a plate reader (μQuant Plate Reader, Bio-Tek Instruments, Winooski, Vt.), subtracting the absorbance at a reference wavelength of 690 nm.
The mean absorbance value for each time point was calculated from the optical density (OD) of the duplicate samples and expressed as percent viability for each sample using the following formula: % viability=100×(OD sample/OD negative control or vehicle control) The ET50, the time at which the EpiOcular™ tissue viability was reduced 50% compared to control tissues, was then determined using a macro in Microsoft Excel 5.0, provided by MatTek, using the equation: V=a+b log t Where V=percent viability, t=time in hours, and a and b are constants that can be determined by using the viability data for two different exposure times of the text article to the tissue.

Another data set is described as follows: Foam height test. The format is physicochemical. The conditions noted are these: for foam height, 30 sec / foam height, 1 min / foam height, 2 min / foam height, Initial Reading: 0.5 grams in 49.5 ml DI water; for foam height, 30 sec / foam height, 1 min / foam height, 2 min: 100 ml graduated cylinder; for foam height, Initial Reading: read in 100 ml graduated cylinder with 1 ml line increments; for Type of Foam: 0.5 grams of active in 49.5 ml DI water, blended 1 minute. As to the method: The testing was performed on samples containing octenidine dihydrochloride, octenidine distearate, PHMB HCl and the chloride salts benzalkonium chloride, benzethonium chloride, and cetylpyridinium chloride.
A 250 ml beaker was filed with 49.5 ml of deionized (DI) water for each sample. Then, 0.5 grams of the active was added to the beaker. Each solution was blended with a Bamix® wand homogenizer/mixer for 1 minute. The solution was then poured into a 100 ml graduated cylinder with 1 ml line increments. The height of the foam was documented at an initial, 30 second, 1 minute, and 2 minute time point.

Data set [2] relates to EpiDerm™ Skin Model (EPI-200). The experiment in a line: MatTek EpiDerm MTT Viability Assay (dermal irritancy). The format is cell-based, human. As to the method: The MatTek EpiDerm™ MTT Viability Assay (MatTek Corp.) was utilized to determine the dermal irritancy and toxicology of octenidine distearate and octenidine dihydrochloride. The assay was performed using the EpiDerm™ Skin Model (EPI-200) as well as the Methyl thiazole tetrazolium (MT) Kit (MTT-100). The EpiDerm™ Skin Model closely parallels human skin, thus providing a useful in vitro method to assess dermal irritancy and toxicology.
Negative controls (treated with tissue culture water) were tested at 4 hours only. Following treatment, the viability of the tissues was determined using MTT uptake and reduction. The absorbance of each sample was measured at 540 nm using a reference wavelength of 690 nm. The viability was then expressed as a percent of Negative Control or Vehicle Control values. The mean percent viability for each time point was used to calculate and ET50, which represents the time at which the EpiDerm™ tissue viability was reduced 50%, compared to Negative Control or Vehicle Control tissues. The ET50 scores were converted to an irritancy classification.
MTT Reduction: 704 μl of mineral oil were heated at 70 C for 10 minutes.
Before use, tissues were incubated (37° C.±1 C, 5%±1% CO2) with assay medium (MatTek) for a one-hour equilibration. Equilibration medium was replaced with fresh medium before dosing.
The test articles were diluted as described in the sample preparation above. 100 μl of the test article dilution were mixed with 1 ml of MTT solution (1 mg/ml MTT diluted in Dulbecco's Modified Eagle's Medium (DMEM). A negative control (100 μl of tissue culture water) and a vehicle control (100 μl of mineral oil) were tested concurrently. The solutions were incubated at room temperature in the dark for 60 minutes. After incubation, the solutions were visually inspected for purple coloration, which is a positive indication that the test article reduced MTT. Since tissue viability is based on MTT reduction, direct reduction by a test article can exaggerate viability, making a test article seem less irritating that it really is.
100 μl of the test article dilutions were applied to the top of each EpiDerm™ tissue. The test articles remained in contact with the EpiDerm™ tissue for 1, 4 and 24 hours. Vehicle controls (TCH20 and mineral oil) for the test articles were tested at 4 hours. A positive control (1% Triton® X-100) was tested at 4 and 9 hours. […]
At the end of the selected exposure periods, each EpiDerm™ tissue was rinsed with phosphate buffered saline (PBS) and transferred to a 24-well plate containing 300 μl of MTT solution (1 mg/ml MTT in DMEM). […] An aliquot of the extracted MTT formazan was measured at 540 nm using a plate reader (pQuant Plate Reader, Bio-Tek Instruments, Winooski, Vt.), subtracting the absorbance at a reference wavelength of 690 nm.

Consider `CCCCCCCCN=c1ccn(CCCCCCCCCCn2ccc(=NCCCCCCCC)cc2)cc1` [Octenidine HCl, Octenidine dihydrochloride], for which the “Irritancy Classification” value in data set [1] is “Severe”. In “Foam height test”, the “foam height, 30 sec” value is recorded as 80; the “foam height, 1 min” value stood at 78; the “foam height, 2 min” value is on record as 70; the “foam height, Initial Reading” value stood at 86. Besides, in the data set “Foam height test”, the “Type of Foam” value was “Slightly loose”. The “ET50” value in data set [2] (human, 1.25 % w/v) came to 1.1 h.

Regarding `CCCCCCCCCCCCCCCCCC(=O)O.CCCCCCCCCCCCCCCCCC(=O)O.CCCCCCCCN=c1ccn(CCCCCCCCCCn2ccc(=NCCCCCCCC)cc2)cc1` [Octenidine distearate, octenidine distearate], in data set [1], the “ET50” value was above 256.0 min; the “ET50 (min)” value is given as “greater than 256.0 min”; the “Irritancy Classification” value is on record as “Non-Irritating, minimal”. In “Foam height test”, the “foam height, 30 sec” value came to 60; the “foam height, 1 min” value came to 56; the “foam height, 2 min” value came out at 52; the “foam height, Initial Reading” value was determined as 70. The “Type of Foam” value in the data set “Foam height test” was “Loose”. Also, in data set [2], the “ET50” value is above 24.0 h, the “ET50 (hrs)” value was “greater than 24.0 hrs” and the “Irritancy Classification” value is “Non-Irritating”.
